From PubChem BioAssay AID2060349 (Molecular Pharmacology Branch, DTP, NCI, 2025)
Where “and” joins values, the source holds several entries; their conditions need not be identical. Equal values may be shown once.

Tested on: 762968-020-R-J2-PDC spheroids viability
Assay: Anticancer human tumor 762968-020-R-J2-PDC patient-derived colon carcinoma cell line growth inhibition [TAK]
Conditions: spheroids with HUVEC and MSC; for viability, T/C: stronger effect = lower value
Summary of the method: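 Tumor cells were grown as spheroids with HUVEC and hMSC (60:25:15) and treated with targeted agents combined with TAK-243 or ipatasertib. Drugs were tested in half-log steps down from near the clinical Cmax, or from 10 microM where Cmax was unknown.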

[1] = curve of first compound, second compound 0.3 µM
[2] = curve of first compound, second compound 0.949 µM
[3] = curve of first compound, second compound 3 µM
[4] = curve of first compound, second compound 9.49 µM
[5] = curve of first compound, second compound 30 µM
[6] = second compound 0.3 µM, first compound 0.00316 µM
[7] = second compound 0.3 µM, first compound 0.01 µM
[8] = second compound 0.949 µM, first compound 0.00316 µM
[9] = second compound 0.949 µM, first compound 0.01 µM
[10] = second compound 3 µM, first compound 0.00316 µM
[11] = second compound 3 µM, first compound 0.01 µM
[12] = second compound 9.49 µM, first compound 0.00316 µM
[13] = second compound 9.49 µM, first compound 0.01 µM
[14] = second compound 30 µM, first compound 0.00316 µM
[15] = second compound 30 µM, first compound 0.01 µM
[16] = second compound 0.3 µM, first compound 0.0316 µM
[17] = second compound 0.3 µM, first compound 0.1 µM
[18] = second compound 0.3 µM, first compound 0.316 µM
[19] = second compound 0.3 µM, first compound 1 µM
[20] = second compound 0.949 µM, first compound 0.0316 µM
[21] = second compound 0.949 µM, first compound 0.1 µM
[22] = second compound 0.949 µM, first compound 0.316 µM
[23] = second compound 0.949 µM, first compound 1 µM
[24] = second compound 3 µM, first compound 0.0316 µM
[25] = second compound 3 µM, first compound 0.1 µM
[26] = second compound 3 µM, first compound 0.316 µM
[27] = second compound 3 µM, first compound 1 µM
[28] = second compound 9.49 µM, first compound 0.0316 µM
[29] = second compound 9.49 µM, first compound 0.1 µM
[30] = second compound 9.49 µM, first compound 0.316 µM
[31] = second compound 9.49 µM, first compound 1 µM
[32] = second compound 30 µM, first compound 0.0316 µM
[33] = second compound 30 µM, first compound 0.1 µM
[34] = second compound 30 µM, first compound 0.316 µM
[35] = second compound 30 µM, first compound 1 µM
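Note: spheroids exposed to drug for 7 days before readout.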
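Throughout, for viability, T/C: 100% = DMSO vehicle control wells.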

CC(C)CC(NC(=O)C(Cc1ccccc1)NC(=O)c1cnccn1)B(O)O (configuration not stated) + CC(C)NCC(C(=O)N1CCN(c2ncnc3c2C(C)CC3O)CC1)c1ccc(Cl)cc1
IC50 [1]: > 10 nM
IC50 [2]: > 10 nM
IC50 [3]: > 10 nM
IC50 [4]: > 10 nM
IC50 [5]: > 10 nM
viability, T/C (second compound 0.3 µM, first compound 31.6 pM): 101%
viability, T/C (second compound 0.3 µM, first compound 0.0001 µM): 101%
viability, T/C (second compound 0.3 µM, first compound 0.000316 µM): 108%
viability, T/C (second compound 0.3 µM, first compound 0.001 µM): 102%
viability, T/C [6]: 98.3%
viability, T/C [7]: 98.1%
viability, T/C (second compound 0.949 µM, first compound 31.6 pM): 103%
viability, T/C (second compound 0.949 µM, first compound 0.0001 µM): 102%
viability, T/C (second compound 0.949 µM, first compound 0.000316 µM): 96.1%
viability, T/C (second compound 0.949 µM, first compound 0.001 µM): 100%
viability, T/C [8]: 105%
viability, T/C [9]: 85.5%
viability, T/C (second compound 3 µM, first compound 31.6 pM): 108%
viability, T/C (second compound 3 µM, first compound 0.0001 µM): 109%
viability, T/C (second compound 3 µM, first compound 0.000316 µM): 106%
viability, T/C (second compound 3 µM, first compound 0.001 µM): 98.8%
viability, T/C [10]: 106%
viability, T/C [11]: 89%
viability, T/C (second compound 9.49 µM, first compound 31.6 pM): 98.5%
viability, T/C (second compound 9.49 µM, first compound 0.0001 µM): 98.7%
viability, T/C (second compound 9.49 µM, first compound 0.000316 µM): 99.3%
viability, T/C (second compound 9.49 µM, first compound 0.001 µM): 104%
viability, T/C [12]: 98.9%
viability, T/C [13]: 97.5%
viability, T/C (second compound 30 µM, first compound 31.6 pM): 87.7%
viability, T/C (second compound 30 µM, first compound 0.0001 µM): 91.9%
viability, T/C (second compound 30 µM, first compound 0.000316 µM): 87.4%
viability, T/C (second compound 30 µM, first compound 0.001 µM): 85.4%
viability, T/C [14]: 95.3%
viability, T/C [15]: 87.2%

COc1c(OCCCN2CCOCC2)ccc2c3n(c(=NC(=O)c4cnc(N)nc4)nc12)CCN3 + CC(C)NCC(C(=O)N1CCN(c2ncnc3c2C(C)CC3O)CC1)c1ccc(Cl)cc1
IC50 [1]: > 1000 nM
IC50 [2]: > 1000 nM
IC50 [3]: > 1000 nM
IC50 [4]: > 1000 nM
IC50 [5]: > 1000 nM
viability, T/C [6]: 95.4%
viability, T/C [7]: 101%
viability, T/C [16]: 89.3%
viability, T/C [17]: 85.1%
viability, T/C [18]: 69.4%
viability, T/C [19]: 66.8%
viability, T/C [8]: 101%
viability, T/C [9]: 96.7%
viability, T/C [20]: 94%
viability, T/C [21]: 84.7%
viability, T/C [22]: 71.3%
viability, T/C [23]: 70%
viability, T/C [10]: 105%
viability, T/C [11]: 100%
viability, T/C [24]: 98.3%
viability, T/C [25]: 89.9%
viability, T/C [26]: 71.6%
viability, T/C [27]: 60.2%
viability, T/C [12]: 102%
viability, T/C [13]: 94.7%
viability, T/C [28]: 88.6%
viability, T/C [29]: 85%
viability, T/C [30]: 78%
viability, T/C [31]: 67%
viability, T/C [14]: 91.8%
viability, T/C [15]: 81.3%
viability, T/C [32]: 79.4%
viability, T/C [33]: 69.5%
viability, T/C [34]: 68.7%
viability, T/C [35]: 59.1%

CC(C)(C)c1nc(-c2cccc(NS(=O)(=O)c3c(F)cccc3F)c2F)c(-c2ccnc(N)n2)s1 + CC(C)NCC(C(=O)N1CCN(c2ncnc3c2C(C)CC3O)CC1)c1ccc(Cl)cc1
IC50 [1]: > 10000 nM
IC50 [2]: > 10000 nM
IC50 [3]: > 10000 nM
IC50 [4]: > 10000 nM
IC50 [5]: > 10000 nM
viability, T/C [16]: 92.8%
viability, T/C [17]: 91.4%
viability, T/C [18]: 84.8%
viability, T/C [19]: 84.3%
viability, T/C (second compound 0.3 µM, first compound 3.16 µM): 92.4%
viability, T/C (second compound 0.3 µM, first compound 10 µM): 94.7%
viability, T/C [20]: 93.9%
viability, T/C [21]: 90.2%
viability, T/C [22]: 84.6%
viability, T/C [23]: 86%
viability, T/C (second compound 0.949 µM, first compound 3.16 µM): 88.4%
viability, T/C (second compound 0.949 µM, first compound 10 µM): 92.8%
viability, T/C [24]: 95.6%
viability, T/C [25]: 87.1%
viability, T/C [26]: 94.8%
viability, T/C [27]: 85.9%
viability, T/C (second compound 3 µM, first compound 3.16 µM): 92%
viability, T/C (second compound 3 µM, first compound 10 µM): 95%
viability, T/C [28]: 92.5%
viability, T/C [29]: 86.4%
viability, T/C [30]: 83.9%
viability, T/C [31]: 79.9%
viability, T/C (second compound 9.49 µM, first compound 3.16 µM): 72%
viability, T/C (second compound 9.49 µM, first compound 10 µM): 92.5%
viability, T/C [32]: 81.4%
viability, T/C [33]: 80.5%
viability, T/C [34]: 81.6%
viability, T/C [35]: 74.1%
viability, T/C (second compound 30 µM, first compound 3.16 µM): 74.5%
viability, T/C (second compound 30 µM, first compound 10 µM): 93.5%

CC(C)n1nc(-c2ccc3oc(N)nc3c2)c2c(N)ncnc21
viability, T/C (compound 0.000316 µM): 99% and 96.9%
viability, T/C (compound 0.001 µM): 99% and 101%
viability, T/C (compound 0.00316 µM): 98.2% and 101%
viability, T/C (compound 0.01 µM): 94.8% and 99.8%
viability, T/C (compound 0.0316 µM): 89.5% and 103%
viability, T/C (compound 0.1 µM): 66.5% and 83.3%
IC50 (curve of compound): > 100 nM
